Assay results from paper PMC8365602 (Journal of Medicinal Chemistry, 2021).

Tests used:
[1] = Radical scavenging activity (DPPH); conditions: DPPH
Description: Compound 27a was incubated with 2,2-diphenyl-1-picrylhydrazyl (DPPH, Sigma-Aldrich; 50 mM) in ethanol for 30 min, and the absorbance was measured at 520 nm using a Multiskan Spectrum Microplate Reader (Thermo Fisher Scientific).[72] The positive control ascorbic acid (Sigma-Aldrich; 25 μM) scavenged DPPH radicals by 36 ± 11%.

PMNL = experiment: Intracellular uptake by PMNL; type: cell-based, human; conditions: 150 nM for 20 min
Description: Cells were centrifuged (1200g, 5 min, 4 °C) and washed thrice with PBS pH 7.4 with 0.1% fatty-acid-free BSA (Sigma-Aldrich). Compounds were extracted and analyzed by UPLC-MS/MS as described below for LCMs and derivatives. The intracellular concentrations of 27a and 12a were calculated assuming a spherical cell shape with a diameter of 13 μm (as measured using a Vi-CELL Series Cell Counter, Beckman Coulter, Krefeld, Germany) and an equal intracellular distribution. 13d (9 pmol) was used as the internal standard.

[2] = system: E. coli-stimulated macrophages; experiment: Arachidonic acid release from E. coli-stimulated macrophages; type: cell-based, human; conditions: ≤1 μM
Description: Macrophages were stimulated in PBS pH 7.4 (containing 1 mM CaCl2) with E. coli (serotype O6:K2:H1) at a ratio of 1:50 (macrophages: E. coli) for 180 min at 37 °C and 5% CO2.[24]
Fatty acids and lipid mediators were extracted from macrophage supernatants or murine peritoneal exudates (1 mL) after addition of two aliquots of ice-cold methanol.[23]d8-5S-HETE, d4-LTB4, d5-lipoxin A4, d5-resolvin D2, d4-PGE2 (200 nM, each, Cayman Chemicals), and d8-arachidonic acid (10 μM, Cayman Chemicals) were added as internal standards. After protein precipitation at −20 °C for ≥1 h, supernatants (1200g, 10 min, 4 °C) were acidified (pH 3.5) and loaded onto solid-phase cartridges (Sep-Pak Vac 6cc 500 mg/6 mL C18; Waters), which had been equilibrated with methanol and H2O. The columns were extensively washed with H2O and hexane before lipid mediators were eluted with methyl formate, evaporated to dryness, dissolved in methanol/H2O (50:50), and analyzed by UPLC-MS/MS.[23]
Absolute quantification was based on 6 internal and 45 external standards.[23]

mPGES-1 = mPGES-1 (Homo sapiens, UniProt O14684); experiment: mPGES-1 activity in microsomal preparations of IL-1β-treated A549 cells; type: biochemical; conditions: 10 μM
Description: Confluent cells were detached by trypsin-EDTA (GE Healthcare) and reseeded at a density of 1 × 10^4 cells/cm^2.
Differential centrifugation at 10 000g for 10 min and 174 000g for 1 h at 4 °C yielded the microsomal fraction. The pellet was resuspended in homogenization buffer and diluted in 0.1 M potassium phosphate buffer pH 7.4 containing 2.5 mM glutathione. Microsomal membranes (adjusted to 2.5–5 μg total protein) were preincubated with 27a for 15 min at 4 °C. The mPGES-1 substrate PGH2 (20 μM) was added to induce PGE2 formation.

human recombinant COX-2 = biological target: T1, human recombinant COX-2 (Homo sapiens, UniProt P35354); experiment: COX-2 activity; type: biochemical
T1 construct: purchased Cayman Chemicals
Description: Purified ovine COX-1 (Cayman Chemicals; 50 units) or human recombinant COX-2 (Cayman Chemicals; 20 units) was dissolved in 100 mM Tris buffer pH 8, 5 mM glutathione, 5 μM hemoglobin, and 100 μM EDTA. COX isoenzymes were preincubated with the vehicle (DMSO) or 27a for 5 min at 4 °C and 1 min at 37 °C. Addition of arachidonic acid (COX-1: 5 μM; COX-2: 2 μM) initiated the formation of COX-derived 12(S)-hydroxy-5-cis-8,10-trans-heptadecatrienoic acid (12-HHT), which was extracted and analyzed by RP-HPLC according to 5-LOX products.

[3] = Hepatic metabolism in human liver-on-chip; type: in vitro ADME; conditions: 1 μM, 48 h
Description: (§1) LCMs, 27a, and 27a metabolites were extracted from PMNL, medium of the liver-on-chip, murine plasma, peritoneal exudate, or homogenized murine tissue as described.[6] In brief, PBS pH 7.4, methanol, chloroform, and saline (final ratio: 14:34:35:17) were successively added together with 13d (9 pmol) as the internal standard. The organic layer was evaporated, and the extracted LCMs were dissolved in methanol.
LCMs, 27a, and 27a metabolites were separated at a flow rate of 0.8 mL/min and a column temperature of 45 °C, with acetonitrile/H2O (10:90) as mobile phase A and acetonitrile as mobile phase B, both acidified with 0.07% formic acid. The linear gradient from A/B = 50:50 to 0:100 within 4.5 min was followed by isocratic elution with A/B = 0:100 for 1 min. MS parameters were adjusted according to Pein et al.[6] and as detailed in Table S3. Signal intensities were normalized to the internal standard 13d, and concentrations were calculated using external calibration curves as specified in Table S3. […]
The medium between the two membranes was renewed, and the vehicle (DMSO), 12a, or 27a were added. […] 12a, 27a, and their metabolites were extracted from the combined fractions and analyzed by UPLC-MS/MS.[6]

[4] = Concentrations and metabolism of compound in mice with zymosan-induced peritonitis; type: in vivo
Description: as §1
LCMs, 27a, and 27a metabolites were separated at a flow rate of 0.8 mL/min and a column temperature of 45 °C, with acetonitrile/H2O (10:90) as mobile phase A and acetonitrile as mobile phase B, both acidified with 0.07% formic acid. The linear gradient from A/B = 50:50 to 0:100 within 4.5 min was followed by isocratic elution with A/B = 0:100 for 1 min. MS parameters were adjusted according to Pein et al.[6] and as detailed in Table S3. Signal intensities were normalized to the internal standard 13d, and concentrations were calculated using external calibration curves as specified in Table S3.
Zymosan (2 mg/mL in saline, i.p., 0.5 mL, Sigma-Aldrich) was injected at 30 min (i.p.) or 60 min (p.o.) post compound administration. Mice were sacrificed by inhalation of CO2 after another 30 min to determine LTC4 levels, lipid mediator profiles, metabolites, and vascular permeability and after 4 h to analyze LTB4 levels and cell infiltration.[72] Plasma and peritoneal exudates were collected, and cells were counted in exudates after trypan blue staining. Vascular permeability was measured by injection of Evans blue dye (40 mg/kg in saline, 0.3 mL, Sigma-Aldrich) into the tail vain directly before peritonitis induction.[72] The exudate was centrifuged (3000g, 5 min), and the absorbance was measured at 610 nm (DU730 spectrophotometer, Beckman Coulter, Krefeld, Germany). Levels of LTB4 and cysteinyl-LTs (dominated by LTC4) were quantified in the exudate by ELISA (Enzo Life Sciences, Lörrach, Germany) according to the manufacturer’s instructions. Compound 27a, its metabolites, and lipid mediators were extracted and analyzed by UPLC-MS/MS.

[5] = biological target: triple mutant Trp13Ala, Trp75Ala, and Trp102Ala 5-LOX (3W) (Homo sapiens, UniProt P09917, W103A/W14A/W76A); experiment: Cell-free activity of 5-LOX triple mutant (3W)
Chain of triple mutant Trp13Ala, Trp75Ala, and Trp102Ala 5-LOX (3W) (P09917 whole entry W14A/W76A/W103A): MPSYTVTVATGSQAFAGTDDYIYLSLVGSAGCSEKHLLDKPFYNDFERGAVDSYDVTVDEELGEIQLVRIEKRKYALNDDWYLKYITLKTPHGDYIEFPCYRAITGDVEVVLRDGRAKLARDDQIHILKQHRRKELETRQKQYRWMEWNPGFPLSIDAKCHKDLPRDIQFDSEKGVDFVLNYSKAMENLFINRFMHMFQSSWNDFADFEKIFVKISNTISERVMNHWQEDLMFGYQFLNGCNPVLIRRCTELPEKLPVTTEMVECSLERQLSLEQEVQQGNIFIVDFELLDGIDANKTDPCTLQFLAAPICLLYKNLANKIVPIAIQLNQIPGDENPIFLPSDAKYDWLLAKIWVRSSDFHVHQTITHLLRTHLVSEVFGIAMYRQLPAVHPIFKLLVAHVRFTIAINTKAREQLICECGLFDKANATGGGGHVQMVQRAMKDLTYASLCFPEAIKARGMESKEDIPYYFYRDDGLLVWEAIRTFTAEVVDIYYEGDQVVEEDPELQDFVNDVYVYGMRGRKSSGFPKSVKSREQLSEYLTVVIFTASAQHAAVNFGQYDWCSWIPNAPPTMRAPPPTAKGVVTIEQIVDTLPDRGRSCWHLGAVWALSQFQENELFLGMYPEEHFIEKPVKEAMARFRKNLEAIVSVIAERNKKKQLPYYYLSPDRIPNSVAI
Description: Human recombinant 5-LOX was expressed in E. coli Bl21 (DE3) cells that were transformed with pT3–5LOX (wt 5-LOX), 5-LOX_3W (triple mutation of Trp102Ala/Trp13Ala/Trp75Ala), or 5-LOX_R (single mutant of the Arg101Asp plasmid) and purified on an ATP-agarose column (Econo-Pac, Bio-Rad, Hercules, CA) by affinity chromatography.[6],[75]
Purified 5-LOX (0.5 μg in PBS pH 7.4 containing 1 mM EDTA and 1 mM ATP) was preincubated with the vehicle (DMSO) or test compounds for 10 min and prewarmed at 37 °C.

Chain of mPGES-1 (O14684 whole entry): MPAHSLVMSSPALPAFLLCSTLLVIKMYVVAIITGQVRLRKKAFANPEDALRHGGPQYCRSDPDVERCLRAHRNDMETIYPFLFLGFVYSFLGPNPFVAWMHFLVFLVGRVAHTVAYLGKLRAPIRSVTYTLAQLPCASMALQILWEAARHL
T1 sequence (P35354 18-604): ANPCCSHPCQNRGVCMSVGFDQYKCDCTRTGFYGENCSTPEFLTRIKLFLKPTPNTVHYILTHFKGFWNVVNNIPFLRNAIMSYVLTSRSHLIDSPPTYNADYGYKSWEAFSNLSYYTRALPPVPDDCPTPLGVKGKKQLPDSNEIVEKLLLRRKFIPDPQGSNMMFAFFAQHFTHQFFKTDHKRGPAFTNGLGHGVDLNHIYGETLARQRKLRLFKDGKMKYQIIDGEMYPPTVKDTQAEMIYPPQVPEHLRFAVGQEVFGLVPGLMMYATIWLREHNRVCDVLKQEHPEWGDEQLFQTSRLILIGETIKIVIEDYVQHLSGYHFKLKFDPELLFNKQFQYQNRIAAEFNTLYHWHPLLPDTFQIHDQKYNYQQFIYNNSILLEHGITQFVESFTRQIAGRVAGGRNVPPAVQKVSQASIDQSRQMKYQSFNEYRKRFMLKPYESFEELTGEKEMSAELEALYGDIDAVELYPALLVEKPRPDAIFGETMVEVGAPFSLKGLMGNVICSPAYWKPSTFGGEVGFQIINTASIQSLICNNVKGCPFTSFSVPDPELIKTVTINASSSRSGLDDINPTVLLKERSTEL

Q: For `C/C(=C\CC/C(C)=C/CC[C@]1(C)CCc2c(C)c(O)c(C)c(C)c2O1)CCC=C(CO)CO` [Compound 27a, α-amplexichromanol], which “Concentrations with antioxidative properties (radical scavenging) versus 5-LOX inhibition” value [1] is on record?
A: The value was “exceed those that effectively inhibit 5-LOX”.

Q: What about the “Intracellular accumulation in PMNL” value (PMNL) of the same compound?
A: Its value is “strongly accumulates in PMNL”.

Q: What about the “Availability of free arachidonic acid” value [2] of the same compound?
A: The value was “neither reduced the availability of free arachidonic acid”.

Q: What about the mPGES-1 activity (mPGES-1) of the same compound?
A: Its mPGES-1 activity is “decreased mPGES-1 activity”.

Q: And the COX-2 inhibition (human recombinant COX-2)?
A: The COX-2 inhibition was “not substantially inhibited”.

Q: And the Hepatic metabolism [3]?
A: The Hepatic metabolism was “preferentially conjugated with sulfate or oxidized at 12a′ or 13′ to the respective ω-carboxylic acid”.

Q: And the concentration at 90 min ([4]; CD-1, mouse, plasma, po, mice with acute peritonitis, 10 mg/kg p.o., 90 min post administration)?
A: The concentration at 90 min was 30 to 900 nM.

Q: What about the “Side-chain degradation in mice” value ([4]; mice, 10 mg/kg p.o., plasma) of the same compound?
A: Its value is “resistant to degradation”.

Q: And the “Time to uptake after oral administration” value ([4]; mice, p.o.)?
A: Its value is at most 1 h.

Q: And the “Concentrations in the peritoneal exudate” value ([4]; mice, peritonitis, oral administration 30 mg/kg)?
A: The value was 0.5 to 4 nM.

Q: What about the “Effect of Trp102Ala/Trp13Ala/Trp75Ala triple mutation on 5-LOX inhibition” value [5] of the same compound?
A: The value was “failed to affect 5-LOX inhibition”.
